Laboratory results reported in US8501446B2 (Vertex Pharmaceuticals Incorporated, priority 2004, dated 2013).

Key:
[1] = target: T1, full length Aurora-A (AA 1-403) (Homo sapiens, UniProt O14965); test: Aurora-A inhibition assay, standard coupled enzyme system; type: biochemical; conditions: average Ki if more than one value determined
T1 construct: full length Aurora-A (AA 1-403)
T1 sequence (O14965 1-403): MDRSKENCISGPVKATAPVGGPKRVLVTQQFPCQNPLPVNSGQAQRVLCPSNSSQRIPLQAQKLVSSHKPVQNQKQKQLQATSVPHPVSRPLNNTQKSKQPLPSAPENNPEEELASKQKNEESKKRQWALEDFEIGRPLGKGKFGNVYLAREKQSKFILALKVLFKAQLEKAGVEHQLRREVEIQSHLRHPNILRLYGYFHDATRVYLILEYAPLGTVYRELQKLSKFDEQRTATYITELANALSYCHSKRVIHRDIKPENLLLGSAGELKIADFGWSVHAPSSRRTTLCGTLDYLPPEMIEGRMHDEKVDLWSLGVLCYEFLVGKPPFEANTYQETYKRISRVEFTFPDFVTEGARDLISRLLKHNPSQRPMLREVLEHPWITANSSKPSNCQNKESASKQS
Experimental: Compounds were screened for their ability to inhibit full length Aurora-A (AA 1-403) activity using a standard coupled enzyme system (Fox et al., Protein Sci. 7, pp. 2249 (1998)). Reactions were carried out in a solution containing 100 mM HEPES (pH 7.5), 10 mM MgCl2, 25 mM NaCl, 300 μM NADH, 1 mM DTT and 3% DMSO. Final substrate concentrations in the assay were 200 μM ATP (Sigma Chemicals, St Louis, Mo.) and 800 μM peptide (LRRASLG, American Peptide, Sunnyvale, Calif.). Reactions were carried out at 30° C. and 35 nM Aurora-A. Final concentrations of the components of the coupled enzyme system were 2.5 mM phosphoenolpyruvate, 200 μM NADH, 60 μg/ml pyruvate kinase and 20 μg/ml lactate dehydrogenase.
An assay stock buffer solution was prepared containing all of the reagents listed above with the exception of ATP and the test compound of interest. The assay stock buffer solution (60 μl) was incubated in a 96 well plate with 2 μl of the test compound of interest at final concentrations spanning 0.002 μM to 30 μM at 30° C. for 10 min. Typically, a 12 point titration was conducted by preparing serial dilutions (from 1 mM compound stocks) with DMSO of the test compounds in daughter plates. The reaction was initiated by the addition of 5 μl of ATP (final concentration 200 μM). Rates of reaction were obtained using a Molecular Devices Spectramax plate reader (Sunnyvale, Calif.) over 10 min at 30° C. The Ki values were determined from the rate data as a function of inhibitor concentration using computerized nonlinear regression (Prism 3.0, Graphpad Software, San Diego, Calif.). Aurora-C activity was screened in a similar manner using Aurora-C protein. Aurora-B activity was screened using a radioactive assay, such as described in Examples 1 and 2, but using Aurora-B protein.

ROCK I (AA 6-553) = target: T2, ROCK I (AA 6-553) (Homo sapiens, UniProt Q13464); test: ROCK inhibition assay, standard coupled enzyme system ("Enzyme"); type: biochemical; conditions: enzyme-linked assay
T2 construct: ROCK I (AA 6-553)
Experimental: Compounds were screened for their ability to inhibit ROCK I (AA 6-553) activity using a standard coupled enzyme system (Fox et al. (1998) Protein Sci. 7, 2249). Reactions were carried out in a solution containing 100 mM HEPES (pH 7.5), 10 mM MgCl2, 25 mM NaCl, 2 mM DTT and 1.5% DMSO. Final substrate concentrations in the assay were 45 μM ATP (Sigma Chemicals, St Louis, Mo.) and 200 μM peptide (American Peptide, Sunnyvale, Calif.). Reactions were carried out at 30° C. and 45 nM ROCK L. Final concentrations of the components of the coupled enzyme system were 2.5 mM phosphoenolpyruvate, 350 μM NADH, 30 μg/ml pyruvate kinase and 10 μg/ml lactate dehydrogenase.

T2 sequence (Q13464 6-553, species assumed): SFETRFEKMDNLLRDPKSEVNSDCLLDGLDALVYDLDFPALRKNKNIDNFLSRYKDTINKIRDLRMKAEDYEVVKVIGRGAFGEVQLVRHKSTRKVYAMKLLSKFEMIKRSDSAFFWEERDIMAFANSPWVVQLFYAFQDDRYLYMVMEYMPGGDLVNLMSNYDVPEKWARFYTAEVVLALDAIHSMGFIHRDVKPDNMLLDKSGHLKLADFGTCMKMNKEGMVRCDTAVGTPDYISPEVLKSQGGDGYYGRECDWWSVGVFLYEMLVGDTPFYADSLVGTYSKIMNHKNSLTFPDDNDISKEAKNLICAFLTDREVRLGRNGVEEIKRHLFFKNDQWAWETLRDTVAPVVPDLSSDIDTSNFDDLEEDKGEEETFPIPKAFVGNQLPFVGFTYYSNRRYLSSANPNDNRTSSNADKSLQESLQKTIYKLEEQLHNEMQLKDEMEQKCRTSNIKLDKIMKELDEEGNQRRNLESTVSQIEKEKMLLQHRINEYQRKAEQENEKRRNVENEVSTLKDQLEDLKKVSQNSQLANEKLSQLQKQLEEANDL

Row | Ki [1] | Ki (ROCK I (AA 6-553)) | Compound
1 | < 500 nM | 500 to 5000 nM | Clc1cnc2[nH]cc(-c3cccc(NCc4ccc(Cl)c(Cl)c4)n3)c2c1 [Compound 251]
2 | < 500 nM | < 500 nM | CN(C)c1cccc(-c2c[nH]c3ncc(-c4ccccc4)cc23)n1 [Compound 253]
3 | < 500 nM | 500 to 5000 nM | Cc1ccc(CNc2cccc(-c3c[nH]c4ncc(Cl)cc34)n2)cc1 [Compound 254]
4 | < 500 nM | < 500 nM | CS(=O)(=O)Nc1ccc(-c2cnc3[nH]cc(-c4ccc(C(N)=O)cc4)c3c2)cc1 [Compound 255]
5 | < 500 nM | < 500 nM | CNS(=O)(=O)c1ccc(-c2cnc3[nH]cc(-c4ccc(C(N)=O)cc4)c3c2)cc1 [Compound 256]
6 | 500 to 5000 nM | 500 to 5000 nM | CC(C)(C)OC(=O)N1CCN(c2cccc(-c3c[nH]c4ncc(Cl)cc34)n2)CC1 [Compound 257]
7 | < 500 nM | 500 to 5000 nM | COc1ccc(CNc2cccc(-c3c[nH]c4ncc(Cl)cc34)n2)cc1 [Compound 258]
8 | < 500 nM | < 500 nM | CCCNc1cccc(-c2c[nH]c3ncc(-c4ccccc4)cc23)n1 [Compound 259]
9 | 500 to 5000 nM | 500 to 5000 nM | Clc1ccc(CNc2cccc(-c3c[nH]c4ncc(-c5ccccc5)cc34)n2)cc1Cl [Compound 261]
10 | 500 to 5000 nM | 500 to 5000 nM | Cc1ccc(CNc2cccc(-c3c[nH]c4ncc(-c5ccccc5)cc34)n2)cc1 [Compound 262]
11 | < 500 nM | 500 to 5000 nM | Clc1cnc2[nH]cc(-c3cccc(Nc4ccccc4Cl)n3)c2c1 [Compound 263]
12 | < 500 nM | 500 to 5000 nM | Clc1cnc2[nH]cc(-c3cccc(NCCc4ccccc4)n3)c2c1 [Compound 264]
13 | < 500 nM | 500 to 5000 nM | c1ccc(Nc2cccc(-c3c[nH]c4ncc(-c5ccccc5)cc34)n2)cc1 [Compound 265]
14 | < 500 nM | 500 to 5000 nM | Clc1ccccc1Nc1cccc(-c2c[nH]c3ncc(-c4ccccc4)cc23)n1 [Compound 266]
15 | < 500 nM | < 500 nM | Clc1cnc2[nH]cc(-c3cccc(N4CCNCC4)n3)c2c1 [Compound 267]
16 | 500 to 5000 nM | 500 to 5000 nM | OCCNc1cccc(-c2c[nH]c3ncc(Cl)cc23)n1 [Compound 270]
17 | < 500 nM | 500 to 5000 nM | CN(C)CCCNc1cccc(-c2c[nH]c3ncc(Cl)cc23)n1 [Compound 271]
18 | < 500 nM | 500 to 5000 nM | Clc1cccc(Nc2cccc(-c3c[nH]c4ncc(Cl)cc34)n2)c1 [Compound 273]
19 | < 500 nM | 500 to 5000 nM | CN(Cc1ccccc1)c1cccc(-c2c[nH]c3ncc(Cl)cc23)n1 [Compound 274]
20 | 500 to 5000 nM | 500 to 5000 nM | CN1CCN(c2cccc(-c3c[nH]c4ncc(Cl)cc34)n2)CC1 [Compound 275]
21 | < 500 nM | 500 to 5000 nM | CC(=O)N1CCN(c2cccc(-c3c[nH]c4ncc(Cl)cc34)n2)CC1 [Compound 276]
22 | < 500 nM | < 500 nM | OCCNc1cccc(-c2c[nH]c3ncc(-c4ccccc4)cc23)n1 [Compound 277]
23 | < 500 nM | < 500 nM | CNc1cccc(-c2c[nH]c3ncc(-c4ccccc4)cc23)n1 [Compound 278]
24 | 500 to 5000 nM | 500 to 5000 nM | CN(c1ccccc1)c1cccc(-c2c[nH]c3ncc(Cl)cc23)n1 [Compound 284]
25 | < 500 nM | 500 to 5000 nM | C[C@H](Nc1nc(-c2c[nH]c3ncc(Cl)cc23)ncc1F)c1ccccc1 [Compound 286]
26 | < 500 nM | 500 to 5000 nM | Clc1cnc2[nH]cc(-c3cccc(NC4CCCC4)n3)c2c1 [Compound 289]

Row | Ki [1] | Ki (ROCK I (AA 6-553)) | Compound
27 | > 5000 nM | 500 to 5000 nM | CNc1cccc(-c2cn(C)c3ncc(Cl)cc23)n1 [Compound 292]
28 | 500 to 5000 nM | 500 to 5000 nM | c1ccc(-c2cnc3[nH]cc(-c4cccc(N5CCCC5)n4)c3c2)cc1 [Compound 293]
29 | < 500 nM | 500 to 5000 nM | O=C(Nc1cccc(-c2c[nH]c3ncc(Cl)cc23)n1)c1ccccn1 [Compound 294]
30 | < 500 nM | 500 to 5000 nM | NC(=O)c1ccc(Nc2nc(-c3c[nH]c4ncc(Cl)cc34)ncc2F)cc1 [Compound 295]
31 | < 500 nM | 500 to 5000 nM | O=C(Nc1cccc(-c2c[nH]c3ncc(Cl)cc23)n1)c1cccnc1 [Compound 296]
32 | < 500 nM | 500 to 5000 nM | COc1ccc(CNc2cccc(-c3c[nH]c4ncc(Cl)cc34)n2)cc1OC [Compound 297]
33 | 500 to 5000 nM | 500 to 5000 nM | CNc1cccc(-c2c[nH]c3ncc(Cl)cc23)n1 [Compound 298]
34 | 500 to 5000 nM | 500 to 5000 nM | Fc1cnc(-c2c[nH]c3ncc(Cl)cc23)nc1Nc1ccc(-n2ccnc2)cc1 [Compound 301]
35 | < 500 nM | < 500 nM | COC(=O)c1cnc2[nH]cc(-c3ncc(F)c(N[C@@H](C)c4ccc(F)cc4)n3)c2c1 [Compound 307]
36 | 500 to 5000 nM | 500 to 5000 nM | Fc1cnc(-c2c[nH]c3ncc(Cl)cc23)nc1SCc1ccc(Cl)cc1 [Compound 308]
37 | 500 to 5000 nM | 500 to 5000 nM | CNC(=O)c1cnc2[nH]cc(-c3ncc(F)c(N[C@@H](C)c4ccc(F)cc4)n3)c2c1 [Compound 309]
38 | < 500 nM | 500 to 5000 nM | CC(Nc1nc(-c2c[nH]c3ncc(Cl)cc23)ncc1F)c1ccc(Cl)cc1 (centres unmarked) [Compound 311]
39 | < 500 nM | 500 to 5000 nM | C[C@@H](Nc1nc(-c2c[nH]c3ncc(Cl)cc23)ncc1F)c1ccc(N)cc1 [Compound 313]
40 | < 500 nM | 500 to 5000 nM | Fc1cnc(-c2c[nH]c3ncc(Cl)cc23)nc1NCc1ccncc1 [Compound 318]
41 | < 500 nM | 500 to 5000 nM | C[C@H](Nc1nc(-c2c[nH]c3ncc(Cl)cc23)ncc1F)c1cccc(OCC(=O)O)c1 [Compound 336]
42 | < 500 nM | 500 to 5000 nM | C[C@H](Nc1nc(-c2c[nH]c3ncc(Cl)cc23)ncc1F)C(=O)N(C)C [Compound 337]
43 | < 500 nM | 500 to 5000 nM | C[C@H](Nc1nc(-c2c[nH]c3ncc(Cl)cc23)ncc1F)C(=O)NC1CC1 [Compound 338]
44 | < 500 nM | 500 to 5000 nM | C[C@H](Nc1nc(-c2c[nH]c3ncc([N+](=O)[O-])cc23)ncc1F)c1ccc(F)cc1 [Compound 342]
45 | < 500 nM | < 500 nM | Fc1cnc(-c2c[nH]c3ncc(Cl)cc23)nc1NC1CCNC1 (centres unmarked) [Compound 344]
46 | < 500 nM | 500 to 5000 nM | C[C@H](Nc1nc(-c2c[nH]c3ncc(Cl)cc23)ncc1F)C(=O)OC(C)(C)C [Compound 351]
47 | < 500 nM | 500 to 5000 nM | C[C@H](Nc1nc(-c2c[nH]c3ncc(Br)cc23)ncc1F)c1ccc(F)cc1 [Compound 357]
48 | 500 to 5000 nM | 500 to 5000 nM | C[C@H](Nc1nc(-c2c[nH]c3ncc(Cl)cc23)ncc1F)C(=O)O [Compound 360]
49 | < 500 nM | 500 to 5000 nM | CC(C)NC(=O)[C@H](C)Nc1nc(-c2c[nH]c3ncc(Cl)cc23)ncc1F [Compound 363]
50 | < 500 nM | 500 to 5000 nM | CC(C)CNC(=O)[C@H](C)Nc1nc(-c2c[nH]c3ncc(Cl)cc23)ncc1F [Compound 364]
51 | < 500 nM | 500 to 5000 nM | C[C@H](Nc1nc(-c2c[nH]c3ncc(Cl)cc23)ncc1F)C(=O)NCCF [Compound 365]
52 | < 500 nM | 500 to 5000 nM | Fc1cnc(-c2c[nH]c3ncc(Cl)cc23)nc1NCC1CCOCC1 [Compound 366]
